Measurements from the supplement of paper PMC4862054.

Key:
Details in all cases: incubation time: 72 h
[1] = test system: BT-474; assay: normalised viability (% of control), CellTiter-Blue; higher = more viable cells (about 100 = DMSO control)
Outline: (§1)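 Each entry is normalised viability at a single listed concentration within a series. It comes from breast cancer cell lines incubated 72 h with compound in 384-well plates, then measured with CellTiter-Blue fluorescence at 560/590 nm. Every plate was normalised between vehicle (100) and a positive kill control (0).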

[2] = test system: CAL-120; assay: as above
Outline: as §1

[3] = test system: CAL-148; assay: as above
Outline: as §1

[4] = test system: CAL-51; assay: as above
Outline: as §1

[5] = test system: DU-4475; assay: as above
Outline: as §1

[6] = test system: HCC1143; assay: as above
Outline: as §1

[7] = test system: HCC1599; assay: as above
Outline: as §1

[8] = test system: HCC1937; assay: as above
Outline: as §1

[9] = test system: HDQ-P1; assay: as above
Outline: as §1

[10] = test system: Hs578T; assay: as above
Outline: as §1

[11] = test system: MDA-MB-231; assay: as above
Outline: as §1

[12] = test system: MDA-MB-436; assay: as above
Outline: as §1

[13] = test system: MFM-223; assay: as above
Outline: as §1

[14] = test system: SK-BR-3; assay: as above
Outline: as §1

[15] = test system: BT-474; assay: drug sensitivity score (DSS), CellTiter-Blue viability (DSS (AUC-based score)); higher = stronger viability inhibition; extreme values may be limits of the assay
Experimental: (§2)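 DSRT with the CellTiter-Blue (resazurin reduction) viability readout, fluorescence 560/590 nm, 72 h incubation. Plates were normalised to DMSO and benzethonium chloride controls. DSS is computed from the area under the fitted dose-response curve (5 or 9 concentrations).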

[16] = test system: CAL-120; assay: as above
Experimental: as §2

[17] = test system: CAL-148; assay: as above
Experimental: as §2

[18] = test system: CAL-51; assay: as above
Experimental: as §2

[19] = test system: DU-4475; assay: as above
Experimental: as §2

[20] = test system: HCC1143; assay: as above
Experimental: as §2

[21] = test system: HCC1599; assay: as above
Experimental: as §2

[22] = test system: HCC1937; assay: as above
Experimental: as §2

[23] = test system: MDA-MB-231; assay: as above
Experimental: as §2

[24] = test system: MDA-MB-453; assay: as above
Experimental: as §2

Oc1ccc2c(c1)CC[C@H](c1ccccc1)[C@@H]2c1ccc(OCCN2CCCC2)cc1 [Lasofoxifene]
normalised viability [%]
Details	0.3 nM	1 nM	3 nM	10 nM	100 nM	1000 nM
[1]	–	122	–	–	114	110
[2]	–	77.6	–	–	87.8	95.8
[3]	95.9	–	104	102	–	–
[4]	100	–	97.9	92.6	–	–
[5]	93.6	–	91.9	88.8	–	–
[6]	–	86	–	–	104	95.6
[7]	–	96	–	–	81.4	103
[8]	–	88.6	–	–	109	121
[9]	97.7	–	114	101	–	–
[10]	–	108	–	–	103	118
[11]	–	93.1	–	–	95.2	95.3
[12]	–	95.5	–	–	84.3	101
[13]	–	83.5	–	–	84	89.7
[14]	–	108	–	–	98.4	101

Details	drug sensitivity score
[15]	0
[16]	0
[17]	0
[18]	0
[19]	0
[20]	0
[21]	0
[22]	0
[23]	0
[24]	0

O=C(Nc1ccncc1)C(=O)c1cn(Cc2ccc(Cl)cc2)c2ccccc12 [Indibulin]
normalised viability [%]
Details	3 nM	10 nM	30 nM	100 nM	1000 nM	10000 nM
[1]	–	99.9	–	–	47.2	39.2
[2]	–	85.7	–	–	35.9	28.1
[3]	95.4	–	92.1	94.5	–	–
[4]	106	–	104	102	–	–
[5]	111	–	93.7	123	–	–
[6]	–	80.7	–	–	41.1	41
[7]	–	113	–	–	124	103
[8]	–	74.5	–	–	21.1	23.1
[9]	90.5	–	87.7	74.8	–	–
[10]	–	110	–	–	56.3	18.5
[11]	–	103	–	–	20.3	16.1
[12]	–	111	–	–	41.4	66.3
[13]	–	112	–	–	63.7	68.5
[14]	–	94.5	–	–	19.9	20.6

Details	drug sensitivity score
[15]	18.3
[16]	22.2
[17]	2.12
[18]	10.8
[19]	7.93
[20]	16.4
[21]	0
[22]	25.9
[23]	20.7
[24]	18

c1ccc2c(CCNc3ccc(Nc4ccncc4)cc3)c[nH]c2c1 [Serdemetan]
normalised viability [%]
Details	3 nM	10 nM	30 nM	100 nM	1000 nM	10000 nM
[1]	–	106	–	–	106	94.4
[2]	–	88	–	–	91.4	48.1
[3]	88.9	–	86.1	96.3	–	–
[4]	118	–	106	108	–	–
[5]	93.1	–	88.3	89.6	–	–
[6]	–	87.7	–	–	77.7	43.3
[7]	–	103	–	–	93.8	74.6
[8]	–	91.2	–	–	94.3	51.4
[9]	97.5	–	99.7	96.7	–	–
[10]	–	108	–	–	91.5	66.8
[11]	–	88.4	–	–	89.5	58.2
[12]	–	96.8	–	–	51.4	43.6
[13]	–	83.2	–	–	104	66.4
[14]	–	96.6	–	–	116	72.2

Details	drug sensitivity score
[15]	0
[16]	0
[17]	4.36
[18]	1.53
[19]	3.86
[20]	0
[21]	1.87
[22]	0
[23]	0
[24]	3.89

Cc1cc(Nc2cc(CN3CCOCC3)c3nc(C)c(Cc4ccc(Cl)cc4F)n3n2)n[nH]1
normalised viability [%]
Details	3 nM	10 nM	30 nM	100 nM	1000 nM	10000 nM
[1]	–	109	–	–	96.6	49.7
[2]	–	83.7	–	–	57.6	14.8
[3]	84.1	–	87.7	88.2	–	–
[4]	97.1	–	95.2	94.2	–	–
[5]	110	–	94.7	122	–	–
[6]	–	78.1	–	–	58.9	35.5
[7]	–	109	–	–	90.5	92
[8]	–	80.4	–	–	64.7	44
[9]	89.9	–	82	82.4	–	–
[10]	–	110	–	–	81.6	2.66
[11]	–	102	–	–	83.6	18.7
[12]	–	109	–	–	71.1	36.8
[13]	–	102	–	–	50.6	44.8
[14]	–	102	–	–	70.9	30.5

Details	drug sensitivity score
[15]	3.02
[16]	8.01
[17]	0
[18]	6.91
[19]	4.98
[20]	11.4
[21]	0
[22]	6.84
[23]	7.21
[24]	10.2

COc1cc2/c(=N/c3ccc(Br)cc3F)nc[nH]c2cc1OCC1CCN(C)CC1 [Vandetanib]
normalised viability [%]
Details	3 nM	10 nM	30 nM	100 nM	1000 nM	10000 nM
[1]	–	92.7	–	–	78.8	8.47
[2]	–	117	–	–	98.2	17.6
[3]	96.2	–	93.2	92.8	–	–
[4]	105	–	107	92.3	–	–
[5]	108	–	102	106	–	–
[6]	–	122	–	–	99.7	68.5
[7]	–	88.7	–	–	107	58.5
[8]	–	29.7	–	–	105	59.7
[9]	76.8	–	72.1	59.3	–	–
[10]	–	108	–	–	92.8	50
[11]	–	86	–	–	82.5	8.26
[12]	–	76.4	–	–	35.7	30.1
[13]	–	100	–	–	61.6	30.6
[14]	–	100	–	–	96.4	14.3

Details	drug sensitivity score
[15]	7.12
[16]	3.15
[17]	0
[18]	6.07
[19]	0
[20]	0.583
[21]	0
[22]	0
[23]	6.74
[24]	3.82

C=C1C[C@@H]2[C@H](CC[C@]3(C)C(=O)CC[C@@H]23)[C@@]2(C)C=CC(=O)C=C12 [Exemestane]
normalised viability [%]
Details	3 nM	10 nM	30 nM	100 nM	1000 nM	10000 nM
[1]	–	111	–	–	93.7	103
[2]	–	96.1	–	–	92.7	84
[3]	95.1	–	88.7	87	–	–
[4]	101	–	95.8	86.5	–	–
[5]	95.1	–	98	79.4	–	–
[6]	–	88.7	–	–	97.8	82.8
[7]	–	81.7	–	–	86.6	77
[8]	–	87.7	–	–	88.3	87.8
[9]	94.5	–	98.5	97.1	–	–
[10]	–	112	–	–	110	100
[11]	–	101	–	–	98.1	124
[12]	–	112	–	–	87.4	96.2
[13]	–	90.6	–	–	101	108
[14]	–	85.2	–	–	101	79.3

Details	drug sensitivity score
[15]	0
[16]	0
[17]	0
[18]	0
[19]	0
[20]	0
[21]	0
[22]	0
[23]	0
[24]	1.5

CC(C)C[C@@H](C(=O)N[C@H](C(=O)OC1CCCC1)c1ccccc1)[C@H](O)C(=O)NO [Tosedostat]
normalised viability [%]
Details	3 nM	10 nM	30 nM	100 nM	1000 nM	10000 nM
[1]	–	107	–	–	101	105
[2]	–	82.4	–	–	65.4	55
[3]	100	–	96.3	81.2	–	–
[4]	110	–	111	86.5	–	–
[5]	95.7	–	98.6	68	–	–
[6]	–	86.3	–	–	63.8	61.1
[7]	–	96.5	–	–	81.6	106
[8]	–	83.6	–	–	36.8	44.5
[9]	116	–	100	111	–	–
[10]	–	96.9	–	–	86	70
[11]	–	105	–	–	53.9	47.1
[12]	–	92.4	–	–	73.1	75.3
[13]	–	91.6	–	–	64.1	32
[14]	–	96	–	–	85.7	63.4

Details	drug sensitivity score
[15]	0
[16]	12.7
[17]	7.49
[18]	4.1
[19]	13.4
[20]	7.29
[21]	0
[22]	14.9
[23]	12.5
[24]	15.8
